What is called logP is a log measure of how a compound divides between an organic and an aqueous phase. `CCCc1ccccc1C` gave a logP of 4.5.
To `CCc1cc(C)cc(C)c1` belongs 4.55; to `CCCc1cccc(C)c1`, 4.67; to `CCc1ccc(C)c(C)c1`, 4.5.
To `CCC(C)c1ccccc1` (stereo unspecified) belongs 4.57.
Molecule `CCc1cccc(C)c1` came in with a log partition coefficient (logP) of 3.98.
Turning to `CCc1cccc(C)c1C`, the logP turned out to be 4.34.
Turning to `CCc1ccc(C)cc1C`, the logP worked out at 4.47.
`CCc1c(C)cccc1C` displayed a logP of 4.28.
`Cc1cccc(C(C)C)c1` registered a logP of 4.5.
`CCc1ccc(CC)cc1` had a logP of 4.58.
`Cc1ccccc1C(C)C`: the logP was 4.38.
The result for `CCc1cc(C)ccc1C` reads 4.43.
Consider `CCCCCCCCCc1ccccc1`, for which the logP came out at 7.11.
For `CCCc1ccc(C)cc1`, the logP is 4.6.
`CCc1cccc(CC)c1` displayed a logP of 4.57.
